Assay results from patent publication US5780253A, “Screening method for detection of herbicides” (Sandoz Ltd., priority 1996, dated 1998).
“Also recorded” adds a separate entry of the source. Where two headings read alike, the source gives them in different places.

What was measured:
[1] = tested on: Arabidopsis; assay: Arabidopsis bioassay, determination of the lethal concentration (LC 90) of the probe compound
[2] = tested on: Arabidopsis; assay: Arabidopsis reversal (reversion) assay: growth with probe compound in the presence of antidote compounds; type: in vivo; details: for Growth (in words): without antidote; for Inhibition of AMP biosynthesis (conversion of IMP to AMP), in words: concluded from Arabidopsis antidote reversal; for Effect of the antidote alone on growth of the plant (in words): control columns 1 through 3, no probe compound
Text: Test conditions suitable for growth are those conditions wherein the control plant material used in the screen, described herein, will grow normally. These conditions are easily determined by one skilled in the art. Reversal conditions are those conditions in which inhibition which occurs at the lethal concentration of a probe compound is reversed as determined by exposure of the plant material to combinations of the probe compound and to one or more antidote compounds. […] An antidote compound is a compound that causes reversal of inhibition of a probe compound. As an example, with respect to inhibitors of ADSS, antidotes would include AMP, ADP, adenosine and adenine.
The solutions are filter sterilized prior to addition. FIG. 4 represents a typical set up in a reversion assay for discovering inhibitors of AMP biosynthesis.
The left side (columns 1-3) of the 24-well microtiter plate is designed for controls, and the right side (columns 4-6) are designated for one probe compound. […] Rows B, C and D are supplemented with three doses of an antidote for the control and probe compound. […] The three doses are 50, 100 and 150 μl respectively of the stock solutions.
Forty ml of Arabidopsis growth media as described in Example 1 is sterilized and allowed to cool to about 45° C. A probe compound (at 1.5×lethal concentration) is added to columns 4 through 6 (right half of the plate). Media is distributed at 1.0 ml per well to all wells. Sterile seeds are added to each well as described above. As in Example 1, the plate is incubated and growth is scored.

[3] = tested on: IMP to GMP conversion; details: known; cited from earlier work
[4] = read-out: lethal concentration (LC 90), Arabidopsis seeds, 28° C., 7 days, approximately, 90% or greater growth inhibition
[5] = antidote Adenosine + Guanosine 0.5-5.0 mM
[6] = antidote Cytidine + Uridine 0.5-5.0 mM
[7] = antidote Hypoxanthine 0.5-5.0 mM

Molecule | Growth, % of Control ([2]; antidote ADP 0.5-5.0 mM) | Growth, % of Control ([2]; antidote AMP 0.5-5.0 mM) | Growth, % of Control ([2]; antidote ATP 0.5-5.0 mM) | Growth, % of Control ([2]; antidote Adenine 0.5-5.0 mM) | Growth, % of Control ([2]; antidote Adenosine 0.5-5.0 mM) | Growth, % of Control [2, 5] | Growth, % of Control [2, 6] | Growth, % of Control ([2]; antidote Guanine 0.5-5.0 mM) | Growth, % of Control ([2]; antidote Guanosine 0.5-5.0 mM) | Growth, % of Control [2, 7] | Growth, % of Control ([2]; antidote IMP 0.5-5.0 mM) | Growth (in words) [2] | Inhibition of AMP biosynthesis (conversion of IMP to AMP), in words [2] | other results
CC(=O)N1C(=O)NC2(OC(COP(=O)(O)O)C(O)C2O)C1=O (stereo not shown) [N-acetylphosphohydantocidin, 5'-Phospho-N-acetyl-hydantocidin] | 100 % of Control | 100 % of Control | 40 % of Control | 65 % of Control | 80-100 % of Control | 80 % of Control | 0 % of Control | 0 % of Control | 0 % of Control | 0 % of Control | 5 % of Control | Growth is not observed | – | IC90 [1, 4]: ~8 µM; Growth, % of Control ([2]; No antidote, 0 mM, probe compound at 1.5×lethal concentration): 0 % of Control
O=C1NC(=O)C2(N1)O[C@H](CO)[C@@H](O)[C@H]2O (single isomer, unassigned) [hydantocidin, reference compound] | 100 % of Control | 100 % of Control | 40 % of Control | 60 % of Control | 80-100 % of Control | 80 % of Control | 0 % of Control | 0 % of Control | 0 % of Control | 0 % of Control | 5 % of Control | Growth is not observed | blocking AMP biosynthesis; also recorded: inhibition of AMP biosynthesis | IC90 [1, 4]: ~2 µM; Growth / reversal of growth inhibition (in words) ([2]; antidote IMP): did not reverse growth inhibition; Growth / reversal of growth inhibition (in words) ([2]; antidotes adenosine and AMP, rows B and C, wells 4 through 6): Complete growth
COc1c(C)c2c(c(O)c1C/C=C(\C)CCC(=O)O)C(=O)OC2 [MPA, Mycophenolic Acid] | – | – | – | – | – | – | – | – | – | – | – | Growth is not observed | – | IC90 ([1]; Arabidopsis thaliana, 168 h, read-out: lethal concentration): 12.5 µg/mL; Inhibition of IMP to GMP conversion, in words [3]: known inhibitor of IMP to GMP conversion
Nc1ncnc2c1ncn2[C@@H]1O[C@H](CO)[C@@H](O)[C@H]1O [adenosine, reference compound] | – | – | – | – | – | – | – | – | – | – | – | – | – | Effect of the antidote alone on growth of the plant (in words) [2]: no effect on the growth of the plant
Nc1ncnc2c1ncn2[C@@H]1O[C@H](COP(=O)(O)O)[C@@H](O)[C@H]1O [AMP, adenosine monophosphate, reference compound] | – | – | – | – | – | – | – | – | – | – | – | – | – | Effect of the antidote alone on growth of the plant (in words) [2]: no effect on the growth of the plant
O=CN(O)CC(=O)O [hadacidin, reference compound] | – | – | – | – | – | – | – | – | – | – | – | Growth is not observed | blocking AMP biosynthesis | IC90 ([1]; Arabidopsis thaliana, 168 h, read-out: lethal concentration (LC 90)): ~50 µM
NC(=O)c1ncn([C@@H]2O[C@H](CO)[C@@H](O)[C@H]2O)n1 [TCR, 1,2,4-triazole-3-carboxamide-1-ribose, reference compound] | – | – | – | – | – | – | – | – | – | – | – | Growth is not observed | – | –
N-acetyl hydantocidin | 100 % of Control | 100 % of Control | 40 % of Control | 60 % of Control | 80-100 % of Control | 80 % of Control | 0 % of Control | 0 % of Control | 0 % of Control | 0 % of Control | 5 % of Control | Growth is not observed | blocking AMP biosynthesis | –
